Reference: patent US20250354993A1, “METHODS OF TREATING AND DIAGNOSING LUNG CANCER” (Yeda Research and Development Co. Ltd., priority 2019, published 2025)

How the values were obtained:
proteasome = assay: Proteasome Cleavage Reporter Assay in A549 active cell extract; type: biochemical
Protocol: FIGS. 33A-D Active cell extract was prepared from A549 lung cancer cells, cells treated with TNFα and IFNγ (TI) and cells treated with TI and recombinant PA200. As a control, MG132 proteasome inhibitor was added. The extracts were then incubated with LLVY-AMC (SEQ ID NO: 1) (A) or PAL-AMC (SEQ ID NO: 2) (B) for 3.5 hours and the relative fluorescence units (RFU) was measured every minute. The RFU for each condition using LLVY-AMC (SEQ ID NO: 1) (C) or PAL-AMC (SEQ ID NO: 2) (D) is shown at 1.5 and 3.5 hours across the different repeats of the experiment.
FIGS. 34A-D. Active cell extract was prepared from A549 lung cancer cells and cells treated with TNFα and IFNγ (TI). To each of these PA200 was added at a concentration of 4.7 nm (1:1) or 0.47 nm (1:10). As a control, MG132 proteasome inhibitor was added. The extracts were then incubated with LLE-AMC (SEQ ID NO: 3) (A), NPND-AMC (SEQ ID NO: 4) (B), LLVY-AMC (SEQ ID NO: 1) (C) or LLE-BNA (SEQ ID NO: 5) (D) for 3.5 hours and the relative fluorescence units (RFU) was measured every minute.
Proteasome Cleavage Reporter Assay: A549 cells, stimulated with TNFα and IFNγ for the indicated times, were collected and flash frozen. Frozen cells were re-suspended in lysis buffer (25 mM sucrose, 50 mM TRIS pH 7.4, 5 mM MgCl2, 0.5 mM EDTA, 2 mM ATP, 1 mM DTT). Lysates were passed 10 times through a 27 G needle, incubated on ice for 15 min and the centrifuged at 21130rcf for 10 min. Protein concentrations were measured using the Coomassie Plus (Bradford) Assay Kit (Pierce, ThermoFisher Scientific). […] of cellular lysate was incubated with 0.1 mM suc-LLVY-AMC (SEQ ID NO: 1), ac-PAL-AMC (SEQ ID NO: 2), Z-LLE-AMC (SEQ ID NO: 3) (Biotest), ac-NPND-AMC (SEQ ID NO: 4) and Z-LLE-βNA (SEQ ID NO: 5) (bachem) as per protocol and fluorescence levels were measured over time using a BioTek Synergy H1 plate reader (Ex: 360 nm, Em: 460 nm). The background protease activity was determined for each condition from an identically prepared sample with the addition of Mg132 proteasome inhibitor (0.04 mM; Calbiochem). […]

PSME4 = assay: Western blot of A549 cells treated with mizoribine; type: cell-based; conditions: purine synthesis blocked using mizoribine, FIG. 26B
Protocol: FIG. 26A-B. PSME4 expression correlates with increased Pyrimidine and decreased Purine metabolites. (A) The log 2 fold change in abundance of cellar metabolites in PSME4 high or low expressing cell lines (x axis) is plotted against the significance of the change. […] (B) A549 cells were treated with mizoribine for the time indicated and then separated by SDS-PAGE and analyzed by Western blot probed with the following antibodies: PSME4, LMP7 (PSMB8), PSMB10, pana (recognized all PSMA subunits), and β actin. Cell Culture and Treatments: A549 cells were grown in DMEM supplemented with 10% fetal bovine serum, 1% Penicillin/streptomycin and L-glutamine (2 mM) (Biological industries) at 37° C. with 5% CO2. Cells were treated with 400 U*mL−1 TNFαand/or 200 U*mL-1 IFNγ (peprotech) for the indicated amount of time. Antibodies for Western blotting, immunoprecipitation and immunohistochemistry: Primary antibodies to the following were used: PSMA1 (hybridoma). PANα (PSMA1-7; Enzo, BML-PW8195-0025), PSME4 (Millipore Sigma HPA060922 and Proteintech 18799-1-AP), LMP7 (Cell signaling 13635), PSMB10 (Thermo Fisher PAS19146) and β-Actin (Abcam ab170325) The following secondary antibodies were used: goat anti-mouse HRP (115-035-003) and goat anti-rabbit HRP (111-035-003) (Jackson Labs).

[1] = A549 extract, PA200 added at 4.7 nm (1:1) or 0.47 nm (1:10), FIG. 34A-D

Compound	effect on the TNFα and IFNγ induced increase in proteasome cleavage (proteasome; A549 cells treated with TNFα and IFNγ plus recombinant PA200, LLVY-AMC or PAL-AMC, FIG. 33A-D)	chymotryptic cleavage (suc-LLVY-AMC) (proteasome; [1])	constitutive proteasome caspase like activity (NPND-AMC + LLE-βNA) (proteasome; [1])	PSME4 expression (PSME4)
recombinant PSME4: recombinant Proteasome activator complex subunit 4 (PA200) added to A549 cell extract	partially reduced	reduction of activity	induces the activity	
NC(=O)c1ncn([C@@H]2O[C@H](CO)[C@@H](O)[C@H]2O)c1O [mizoribine]				decrease in PSME4 expression
